Test results from patent US5445951A, “Regioselective enzymatic deacylation of sucrose esters in anhydrous organic media” (priority 1993, dated 1995).

Columns and labels:
protease type XXIII = test: Effect of the solvent on protease type XXIII catalyzed deacylation of SOP; type: biochemical, Aspergillus oryzae; details: 24 hrs; for SheptaP's (8.3 min): HPLC peak 8.3 min; for SheptaP's (8.9 min): HPLC peak 8.9 min; for SheptaP's (9.9 min): HPLC peak 9.9 min; for SOP: solvent as labelled
Experimental: (§1) Identical SOP deacylations were performed with lipase AY 30 or protease type XXIII in numerous anhydrous organic solvents, as shown in Tables 12 and 13.
(§2) Solvent screening for SOP deacylation. A scintillation vial was charged successively with 100 mg of lipase AY 30 or protease type XXIII as described and 1.0 ml of 20 mM sucrose octapropionate (SOP) and 200mM butanol dissolved in an organic solvent. Following a 5 sec sonication, the vial was incubated in a controlled-temperature shaker at 45° C. and 300 RPM for 24 hrs. A 200 μl aliquot of the reaction mixture was withdrawn and centrifuged. The supernatant was collected and evaporated under a stream of N2. The residue was reconstituted in 200 μl of acetonitrile and 10 μl of this solution was analyzed by HPLC.

lipase AY 30 [1] = test: Effect of the solvent on lipase AY 30 catalyzed deacylation of SOP; type: biochemical, Candida cylindracea; details: for ShexaP (4.2 min) / SheptaP's (8.9 min) / SheptaP's (9.4 min) / SheptaP's ([…]): lipase AY 30, 24 hrs; for ShexaP (4.2 min): HPLC peak 4.2 min; for SheptaP's (8.9 min): HPLC peak 8.9 min; for SheptaP's (9.4 min): HPLC peak 9.4 min; for SheptaP's ([…]): HPLC peak […]; for SOA: lipase AY 30, solvent as labelled, 200 mM butanol, 24 hrs, peak 21.4 min; for SheptaP's ([…]): HPLC peak 8.2 min
Experimental: as §1, §2

[2] = type: physicochemical; details: estimated from known log P values / increments
From the text: ^a) log P is a measurement of the solvent hydrophobicity (logarithm o
the solvent partition coefficient between noctanol and water [Rekker, "Th
Hydrophobic Fragmental Constant", Elsevier, Amsterdam (1977)]). The log P
values from this table are from Laane et al. , Biotechnol Bioeng. 30,81

lipase AY 30 [3] = test: Effect of the solvent on lipase AY 30 SOA deacetylation; type: biochemical, Candida cylindracea; details: lipase AY 30, solvent as labelled, 24 hrs
Experimental: Identical enzyme catalyzed SOA deacetylations were run in numerous anhydrous solvents. After 24 hrs incubation an aliquot was analyzed by HPLC.
as §2, with “Enzyme and Solvent” for “Solvent”, “Screening” for “screening”, “SOA Deacetylation.” for “SOP deacylation.”, “powdered enzyme as received” for “lipase AY 30”, “prepared” for “protease type XXIII”, “octaacetate (SOA)” for “octapropionate (SOP) and 200mM butanol”

[4] = SOP hydrolytic enzyme screen in heptane with n-butanol; type: biochemical; details: 24 hrs; for SheptaP's ([…]): HPLC peak […]; for SOP: residual SOP; for SheptaP's ([…]): HPLC peak 8.2 min
Experimental: To extend the scope and utility of this study, sucrose octapropionate was synthesized and used as substrate in enzyme catalyzed deacylation reactions. […] The hydrolytic enzymes were screened for their capability to deacylate SOP in heptane with n-butanol as the nucleophile. After 24 hrs incubation aliquots were analyzed by HPLC.
as §2, with “Enzyme” for “Solvent”, “deacylation in heptane.” for “deacylation.”, “powdered enzyme as received” for “lipase AY 30”, “prepared” for “protease type XXIII”, “200 mM” for “200mM”, “and” for “and evaporated under a stream of N2. The residue was reconstituted in 200 μl of acetonitrile and”

[5] = as obtained from supplier; cited from earlier work
alcalase = molecular target: T1, alcalase (Bacillus licheniformis, UniProt P00780); test: Nucleophile screening for alcalase catalyzed deacetylation of SOA in diisopropyl ether; type: biochemical; details: nucleophile 200 mM, peak height ratio 1'-OH / 6'-OH heptaacetate
T1 construct: purchased Novo Nordisk (gift)
T1 sequence (P00780 106-379): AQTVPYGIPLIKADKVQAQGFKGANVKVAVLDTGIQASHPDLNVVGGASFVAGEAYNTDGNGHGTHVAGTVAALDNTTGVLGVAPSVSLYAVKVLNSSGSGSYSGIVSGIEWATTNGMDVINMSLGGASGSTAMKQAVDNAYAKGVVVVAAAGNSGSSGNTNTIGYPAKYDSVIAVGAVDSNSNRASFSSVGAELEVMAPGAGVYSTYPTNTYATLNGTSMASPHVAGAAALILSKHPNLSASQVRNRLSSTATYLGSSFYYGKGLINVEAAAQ
Experimental: (§3) Nucleophile screening for alcalase, proleather or lipase AP 12 catalyzed deacetylation of SOA. A scintillation vial was charged successively with 100 mg of powdered enzyme prepared as described, 1.0 ml of 20 mM sucrose octaacetate (SOA) and 200 mM of the nucleophile dissolved in diisopropyl ether. Following a 5 sec sonication, the vial was incubated in a controlled-temperature shaker at 45° C. and 300 RPM for 66 hrs. A 200 μl aliquot of the reaction mixture was withdrawn and centrifuged. The supernatant was collected and evaporated under a stream of N2. The residue was reconstituted in 200 μl of acetonitrile and 10 μl of this solution was analyzed by HPLC. For screening concentration effects on enzyme activity, the same protocol was followed except the nucleophile concentration was varied from 0 to 2000 mM.

lipase AP 12 = test: Nucleophile screening for lipase AP 12 catalyzed deacetylation of SOA in diisopropyl ether; type: biochemical, Aspergillus niger; details: lipase AP 12, nucleophile 200 mM, 66 hrs
Experimental: as §3

proleather = test: Nucleophile screening for proleather catalyzed deacetylation of SOA in diisopropyl ether; type: biochemical, Bacillus subtilis; details: nucleophile 200 mM; for % conv: 66 hrs; for regiochem: peak height ratio 1'-OH / 6'-OH heptaacetate
Experimental: as §3

[6] = SOP deacylation catalyzed by pH precipitated enzymes in diisopropyl ether; type: biochemical
Experimental: To increase the number and/or activities of enzymes active with SOP, pH precipitation experiments, as described for SOA, were undertaken.
(§4) The pH of commercial powdered enzymes was adjusted in the following way: The enzyme (3 g) was dissolved in 25 ml of an appropriate buffer and the pH adjusted with dilute NaOH or citric/phosphoric acid solution. Cold acetone (37.5 ml at -20° C.) was added and the precipitate collected on a medium porosity glass funnel and dried overnight at 2 millitorr. The protein pellet was ground to a fine powder and equilibrated at 4° C. over saturated aqueous potassium carbonate (RH: 43%) for 24 hrs.

[7] = Activity and regioselectivity of enzymes for SOA deacetylation; type: biochemical; details: for regioselectivity of SOA deacetylation: in words
Experimental: An important aspect of this work was to assign, unequivocally, the structures of all sucrose hepta-, hexa-, and pentaacetates obtained by enzymatic deacetylation of SOA. These structures were assigned by perdeuterioacetylation followed by ^1 H-NMR, as described by Rathbone E. B., Carbohydr. Res., 205,402 (1990).
HPLC analysis. Routine screening was performed on a Supelcosil LC-18-DB column (150×4.6 mm, 5μ) using an isocratic mode with either acetonitrile/water (35/65) or acetonitrile/water (60/40) as eluant for reactions involving sucrose octaacetate (SOA) and sucrose octapropionate (SOP), respectively. All flow rates were 1.0 ml/min with UV detection at 220 nm. To identify all products from SOA deacetylation, a gradient mode was employed using 15% to 35% acetonitrile in water over 40 minutes followed by 35/65 acetonitrile/water isocratic elution for 20 minutes. To screen nucleophiles for SOA deacetylation, an isocratic elution mode was employed using 30/70 acetonitrile/water for 16 min followed by a gradient from 30% to 35% acetonitrile in water over 5 min and finally isocratic elution using 35/65 acetonitrile/water for 16 min. To assess the enzyme regiochemistry for SOA deacetylation, an isocratic elution mode was employed using 25/75 acetonitrile/water for 55 minutes.
Identification of the Sucrose Hepta, Hexa or Pentaacetates Obtained Enzymatically. The fraction of sucrose hepta, hexa or pentaacetates were identified as follows. The compound(s) of interest was dissolved in 1.0 ml 99.0 atom % pyridine--d5 followed by addition of 1.0 ml 99 +atom % acetic anhydride--d6. The resulting solution was shaken at 45° C. and 300 RPM for several hours until TLC analysis (silica gel, 9/1 CHCl3 /MeOH) indicated complete reaction. The reaction mixture was evaporated in vacuo and the residue washed several times with water to remove residual pyridine-d5 and/or acetic anhydride-d6. The resulting oily solid was dissolved in 5 ml off chloroform and passed through Whatmann 12.5 cm 1 PS silicone treated filter paper to remove water.
as §4
as §2, with “Enzyme and Solvent” for “Solvent”, “Screening” for “screening”, “SOA Deacetylation.” for “SOP deacylation.”, “powdered enzyme as received” for “lipase AY 30”, “prepared” for “protease type XXIII”, “octaacetate (SOA)” for “octapropionate (SOP) and 200mM butanol”

[8] = SOA deacetylation catalyzed by pH precipitated enzymes in diisopropyl ether; type: biochemical
Experimental: A wide variety of hydrolytic enzymes were initially screened for their ability to regioselectively deacetylate SOA in organic solvents. […] Enzyme activity is dependent upon the presence of a minimum shell of water surrounding the enzyme. […] It is known that one way to improve the catalytic power of an enzyme in organic solvent is to use it in the right ionic state.
as §4
as §2, with “Enzyme and Solvent” for “Solvent”, “Screening” for “screening”, “SOA Deacetylation.” for “SOP deacylation.”, “powdered enzyme as received” for “lipase AY 30”, “prepared” for “protease type XXIII”, “octaacetate (SOA)” for “octapropionate (SOP) and 200mM butanol”

[9] = HPLC sucrose heptaacetate peak height
[10] = diisopropyl ether, 24 hrs incubation, HPLC

CCC(C)=O [butanone]
SheptaP's (8.3 min) (protease type XXIII): 1.0%
SheptaP's (8.9 min) (protease type XXIII): 0%
SheptaP's (9.9 min) (protease type XXIII): 0.2%
SOP (protease type XXIII): 98.8%
ShexaP (4.2 min) (lipase AY 30 [1]): 0%
SheptaP's (8.9 min) (lipase AY 30 [1]): 0%
SheptaP's (9.4 min) (lipase AY 30 [1]): 0.2%
SheptaP's ([…]) (lipase AY 30 [1]): 0.9%
SOA (lipase AY 30 [1]): 98.9%

CCOCCOCC [ethylene glycol diethyl ether]
log P [2]: 0.87
SOA (lipase AY 30 [3]): 85.0%
SheptaA (lipase AY 30 [3]): 13.5%
ShexaA (lipase AY 30 [3]): 1.5%

bromelain
SheptaP's (9.6 min) ([4]; HPLC peak 9.6 min): 0.3
SheptaP's ([…]) [4]: 0.7
SOP [4]: 99.0%
enzyme activity [5]: 22.9 U/mg

OC1CCCCC1 [cyclohexanol]
regiochem (alcalase): 8.0
SOA (lipase AY 30 [3]): 96.8%
SheptaA (lipase AY 30 [3]): 2.9%
ShexaA (lipase AY 30 [3]): 0.3%
% conv (lipase AP 12): 25.0%
% conv (proleather): 38.2%
regiochem (proleather): 3.9

CC(C)=O [acetone]
SheptaP's (8.3 min) (protease type XXIII): 0.7%
SheptaP's (8.9 min) (protease type XXIII): 0%
SheptaP's (9.9 min) (protease type XXIII): 0.2%
SOP (protease type XXIII): 99.1%
SOA (lipase AY 30 [3]): 98.6%
SheptaA (lipase AY 30 [3]): 1.4%
ShexaA (lipase AY 30 [3]): 0%
ShexaP (4.2 min) (lipase AY 30 [1]): 0%
SheptaP's (8.9 min) (lipase AY 30 [1]): 0%
SheptaP's (9.4 min) (lipase AY 30 [1]): 0.1%
SheptaP's ([…]) (lipase AY 30 [1]): 1.2%
SOA (lipase AY 30 [1]): 98.7%

CC1(C)CCC(C)(C)O1 [2,2,5,5-tetramethyl THF, 2,2,5,5-tetramethyltetrahydrofuran]
log P [2]: 2.5
SOA (lipase AY 30 [3]): 68.4%
SheptaA (lipase AY 30 [3]): 31.6%

CC1CCC(C)O1 (stereo not shown) [2,5-dimethyl THF, 2,5-dimethyltetrahydrofuran]
log P [2]: 1.5
SOA (lipase AY 30 [3]): 96.2%
SheptaA (lipase AY 30 [3]): 3.8%
ShexaA (lipase AY 30 [3]): 0%

CC1CCCO1 (stereo not shown) [2-methyl THF, 2-methyltetrahydrofuran]
log P [2]: 1.0
SOA (lipase AY 30 [3]): 96.2%
SheptaA (lipase AY 30 [3]): 3.8%
ShexaA (lipase AY 30 [3]): 0%

CC#N [acetonitrile]
SheptaP's (8.3 min) (protease type XXIII): 1.1%
SheptaP's (8.9 min) (protease type XXIII): 0%
SheptaP's (9.9 min) (protease type XXIII): 0.5%
SOP (protease type XXIII): 98.4%
SOA (lipase AY 30 [3]): 98.6%
SheptaA (lipase AY 30 [3]): 1.4%
ShexaA (lipase AY 30 [3]): 0%
ShexaP (4.2 min) (lipase AY 30 [1]): 0%
SheptaP's (8.9 min) (lipase AY 30 [1]): 0%
SheptaP's (9.4 min) (lipase AY 30 [1]): 0.2%
SheptaP's ([…]) (lipase AY 30 [1]): 1.1%
SOA (lipase AY 30 [1]): 98.7%

OCCc1ccccc1 [phenethyl alcohol]
regiochem (alcalase): 7.3
% conv (lipase AP 12): 25.7%
% conv (proleather): 51.5%
regiochem (proleather): 5.3

B1: alcalase: Novo Nordisk, Bacillus licheniformis (protein, UniProt P00780 106-379, looked up)
Subtilisin Carlsberg: T1 sequence (P00780 106-379)
buffer pH (optimal pH for enzyme activity in anhydrous media) ([6]; SOP deacylation): 9.0
SOP ([6]; diisopropyl ether, 24 hrs): 81.8%
SheptaP's ([6]; diisopropyl ether, 24 hrs): 15.9%
ShexaP's ([6]; diisopropyl ether, 24 hrs): 2.3%
capability of deacetylating SOP ([6]; pH precipitated, in words): capable of deacetylating SOP
regiochemistry 1'OH [7, 9]: 13
regiochemistry 6'OH [7, 9]: 2
buffer pH (optimal pH for enzyme activity in anhydrous diisopropyl ether) ([7]; SOA deacetylation): 9.0
regioselectivity of SOA deacetylation [7]: primarily at 1'- position with some reaction occurring at the 6'- position
regioselectivity of SOA deacetylation ([7]; listed as Alcalase): at the 1' position and secondarily at the 6' position
% conv ([7]; total of all sucrose hepta and hexa acetates): 28.1%
buffer pH (optimal pH for enzyme activity in anhydrous solvents) ([8]; SOA deacetylation): 9.0
SheptaAs [8, 10]: 39.7%
ShexaAs [8, 10]: 10.9%
SOA ([8]; residual SOA, diisopropyl ether, 24 hrs incubation, HPLC): 49.4%

B2: papain: Sigma, Papaya latex (protein, UniProt P00784 134-345, looked up)
Papain: IPEYVDWRQKGAVTPVKNQGSCGSCWAFSAVVTIEGIIKIRTGNLNEYSEQELLDCDRRSYGCNGGYPWSALQLVAQYGIHYRNTYPYEGVQRYCRSREKGPYAAKTDGVRQVQPYNEGALLYSIANQPVSVVLEAAGKDFQLYRGGIFVGPCGNKVDHAVAAVGYGPNYILIKNSWGTGWGENGYIRIKRGTGNSYGVCGLYTSSFYPVKN
SheptaP's (7.0 min) ([4]; HPLC peak 7.0 min): 0.3
SheptaP's ([…]) [4]: 0.9
SOP [4]: 98.8%
enzyme activity [5]: 2.8 U/mg
